Data published in US20060167229A1, “Biologically active peptide conjugates” (priority 2002, published 2006).
Marks after values point to notes of the source that are not given here. Ends that are not written are not given here.

Columns and labels:
[1] = system: Duck Hepatitis B Virus (DHBV); assay: Chongqing duck hepatitis B model, serum DHBV DNA by dot-blot hybridization; format: in vivo, Chongqing ducks
Method: Chongqing duck hepatitis B model was set up and treated with peptides by intraperitoneal injection (50 μg/kg/day, once per day) for 4 weeks. The serum level of DHBV DNA was analyzed by serum dot-blot hybridization. Lamivudine and normal saline treatment was used as positive and negative control respectively. […] It is concluded that CMS001 at suitable dosage level can be used as a part, or on its own, for viral hepatitis infection management. One-day old Chongqing ducks were inoculated with 0.1 ml stock serum positive of Duck Hepatitis B Virus (DHBV) DNA (5×10^7 copy/ml) by intraperitoneal injection. One week later, blood samples were collected from the external jugular vein and infection was confirmed by dot-blot hybridization with DHBV DNA probe labeled with digoxin^[2]. The ducks were breed to 2 weeks old for entrance into the study. […] Treatment lasted for 4 weeks and observation continued for another one week after termination of treatment. 1 ml blood samples were drawn from the external jugular vein of the ducks on days 0, 7, 14, 21, 28, and 35 when treatment started. Sera of the blood samples were isolated immediately^[3] and stored at −20° C. until analysis. 4. Serum DHBV DNA Level Determinations DHBV DNA probe was fluorescent labeled according to the labeling kit protocol from the kit manufacturer (Amersham Pharmacia Biotech Co.). 40 μl duck sera were dot-blotted (1 duplicated dot per sample) onto nitro-cellulose membrane and hybridized with fluorescent-labeled DHBV DNA probe for quantitation^[2]. After completion of hybridization, the blots were developed in CDP-Star fluorimetry reagent RPN3690 and scanned with Vuego Scan (Brisa-620st) scanner. ImageMaster TotalLab v1.11.Ink software was used for quantitative analysis of the blots. Statistical analysis was carried out according to the pair t-test with SPSS software.

[2] = Body weight of rats on high nutrition diet (over-feeding obesity model); format: in vivo, Sprague-Dawley (SD) rats
Method: Healthy rats were fed with high nutrition diet for 5 weeks, with or without simultaneous peptide treatment (intramuscular 300 μg/kg/day). Rats on an ordinary diet with saline injection were used as negative control. After 5 weeks of treatment, injection was stopped and the same diet was maintained for another three weeks. Body weight data was collected at once per week interval. Behaviour of the rats was also observed. […] It is concluded that CMS015 at suitable dosage level can reversibly control obesity development induced by over-feeding.
Sprague-Dawley (SD) rats, weighing 145±10 g, were supplied by the Center of Experimental Animal of Guangzhou University of Traditional Chinese Medicine, PR China (certificate No.: 2000A019). Peptides were custom synthesized (of L-amino acids origin) by American Peptide Company, Inc., USA, and were diluted to 10 μg/ml in normal saline. The high and normal nutrition diets were prepared in compliance with the guideline for pre-clinical research of anti-obesity drug, issued by SDA (State Drug Administration), PR China^[1].
Healthy rats were randomized into the experiment, positive control, and negative control groups. 10 rats per group, half male and half female. The experiment group of rats was fed with high nutrition diet for 5 weeks with simultaneous intramuscular injection of 300 μg/kg/day peptide, once per day. Positive control group received the same high nutrition diet but placebo saline injection, while negative control group, used to proof successful establishment of obesity model, received normal nutrition diet and placebo saline injection. After 5 weeks treatment, injection was stopped and the same diet was maintained for another 3 weeks. The rats were weighed at once per week interval. Behaviour of the rats was also observed.
The data were presented as mean±standard deviation. Paired t test or single-factor ANOVA was used for inter and intra group comparison. Statistical significance cut-off was at P≦0.05.

## PTTKTYFPHF [CMS001]
[1]; 50 μg/kg/day i.p. for 4 weeks, then one week observation
  serum DHBV DNA titre upon termination of treatment: rebounded to a value with no statistical difference from that before treatment
[1]; Day 0 (before treatment), CMS001 50 μg/kg/day i.p., lamivudine 50 mg/kg/day oral, saline 26 ± 12
  DHBV DNA level (Mean ± Standard Deviation): 21 ± 18 10^3 units
[1]; Day 7, CMS001 50 μg/kg/day i.p., lamivudine 50 mg/kg/day oral, saline 45 ± 31
  DHBV DNA level (Mean ± Standard Deviation): 11 ± 13 10^3 units
[1]; Day 14, CMS001 50 μg/kg/day i.p., lamivudine 50 mg/kg/day oral, saline 49 ± 23
  DHBV DNA level (Mean ± Standard Deviation): 20 ± 18 10^3 units
[1]; Day 21, CMS001 50 μg/kg/day i.p., lamivudine 50 mg/kg/day oral, saline 102 ± 66
  DHBV DNA level (Mean ± Standard Deviation): 14 ± 14 10^3 units
[1]; Day 28 (end of 4 weeks treatment), CMS001 50 μg/kg/day i.p., lamivudine 50 mg/kg/day oral, saline 60 ± 38
  DHBV DNA level (Mean ± Standard Deviation): 5 ± 3* 10^3 units
[1]; Day 35 (one week after termination of treatment), saline 50 ± 43
  DHBV DNA level (Mean ± Standard Deviation): 18 ± 16 10^3 units

## Pro Ser Ile Vat Gly Arg Pro Arg His Gln Gly Val Met (PSIVGRPRHQGVM; listed as Sus scrofa) [CMS015]
[2]; 300 μg/kg/day i.m. for 5 weeks, then 3 weeks same diet without injection
  difference of the treatment and control groups upon termination of peptide treatment: gradually reduced and became statistically insignificant after three weeks
[2]; Female n = 5, Pre-treatment, positive control 133.6 ± 4.6
  body weight: 129.2 ± 3.3 g
[2]; Female, Week 1, 300 μg/kg/day i.m., high nutrition diet, positive control 164.4 ± 8.7
  body weight: 157.8 ± 8.3 g
[2]; Female, Week 2, 300 μg/kg/day i.m., high nutrition diet, positive control 188.0 ± 6.4
  body weight: 176.0 ± 11.2 g
[2]; Female, Week 3, 300 μg/kg/day i.m., high nutrition diet, positive control 208.8 ± 8.2
  body weight: 196.0 ± 10.5 g
[2]; Female, Week 4, 300 μg/kg/day i.m., high nutrition diet, positive control 227.2 ± 8.2
  body weight: 212.0 ± 13.5 g
[2]; Female, Week 5, 300 μg/kg/day i.m., high nutrition diet, positive control 236.6 ± 10.9
  body weight: 221.4 ± 13.2 g
[2]; Female, Week 6 (injection stopped after week 5), positive control 249.4 ± 16.3
  body weight: 235.6 ± 16.3 g
[2]; Female, Week 7 (injection stopped after week 5), positive control 261.2 ± 13.4
  body weight: 242.2 ± 18.8 g
[2]; Female, Week 8 (injection stopped after week 5), positive control 255.6 ± 11.5
  body weight: 252.8 ± 22.5 g
[2]; Male n = 5, Pre-treatment, positive control 145.6 ± 13.6
  body weight: 145.6 ± 8.5 g
[2]; Male, Week 1, 300 μg/kg/day i.m., high nutrition diet, positive control 194.4 ± 14.5
  body weight: 183.8 ± 10.6 g
[2]; Male, Week 2, 300 μg/kg/day i.m., high nutrition diet, positive control 239.6 ± 13.4
  body weight: 220.6 ± 12.2 g
[2]; Male, Week 3, 300 μg/kg/day i.m., high nutrition diet, positive control 265.0 ± 11.8
  body weight: 239.0 ± 16.0 g
[2]; Male, Week 4, 300 μg/kg/day i.m., high nutrition diet, positive control 287.4 ± 17.7
  body weight: 258.2 ± 18.1 g
[2]; Male, Week 5, 300 μg/kg/day i.m., high nutrition diet, positive control 299.4 ± 21.2
  body weight: 268.8 ± 17.7 g
[2]; Male, Week 6 (injection stopped after week 5), positive control 333.4 ± 27.1
  body weight: 299.4 ± 21.2 g
[2]; Male, Week 7 (injection stopped after week 5), positive control 349.2 ± 28.9
  body weight: 310.4 ± 25.9 g
[2]; Male, Week 8 (injection stopped after week 5), positive control 374.4 ± 37.2
  body weight: 337.4 ± 30.6 g
